Assay results: patent publication US10654917B2, “Antibody molecules and peptide delivery systems for use in alzheimer's disease and related disorders” (TECHNOPHAGE, INVESTIGAÇĀO E DESENVOLVIMENTO EM …, priority 2015, dated 2020)
Where two headings read alike, the source gives them in different places.

Key:
[1] = Partition coefficient (log Po/w) of radiopeptides; format: physicochemical
Description: Table 7 lists each peptide's name, isoelectric point (PI), charge (number of positive residues), calculated mass (in Da), and ion found; as well as the name, calculated mass, and found ion for the corresponding conjugate; and also retention times in HPLC and the partition coefficient (log Po/w). These values allowed the determination of the hydrophilic nature of peptides, where pepH1 and pepH4 were identified as the most hydrophilic peptides.

[2] = Biodistribution of technetium-labelled peptides; format: in vivo, CD1 mice; settings: iv, 80 ug/mouse, total radioactivity, 80 μg/mouse
Protocol: To evaluate the capacity to cross the BBB in vivo, the selected peptides, pepH1 and pepH3, were analyzed for biodistribution in CD1 mice. The peptides were labelled with technetium at a final concentration of 8.5×10^−5 M and diluted in PBS. CD1 mice were injected (iv injection, tail vein). The mice were sacrificed by cervical dislocation after 5 and 60 minutes of incubation. The tissues of interest were dissected and washed to remove excess blood, weighed, and measured for radioactivity. Technetium radioactivity of the different peptides was measured for different organs.
Initial results are presented in Table 11, where “% I.A. refers to the “% injected activity”, that is, the amount of radioactivity measured in a given organ compared to the total originally injected.
The biodistribution studies were repeated, using higher doses of each peptide, specifically, a one hundred fold increase, as well as using PepH2 as a negative control, and allowing incubation for 2 minutes and 60 minutes. Tissue biodistribution profile in percentage of injected radiopeptide activity per gram of tissue/organ was measured and results are presented in Table 12.

SMILES: CSCC[C@H](NC(=O)[C@H](Cc1ccccc1)NC(=O)[C@H](CC(C)C)NC(=O)[C@H](CCCCN)NC(=O)CCCN(CCN)CCn1nc(C)c(CC(=O)O)c1C)C(=O)N[C@@H](C)C(=O)N[C@@H](CC(C)C)C(=O)N[C@H](C(=O)N[C@@H](C)C(=O)N[C@@H](Cc1ccccc1)C(=O)N[C@@H](CC(C)C)C(=O)N[C@@H](CCCNC(=N)N)C(=O)N[C@@H](Cc1ccccc1)C(=O)N[C@@H](CC(C)C)C(=O)N[C@H](C(=O)O)[C@@H](C)O)C(C)C [^99mTc(CO)3-Pz^1-pepH2, metal not drawn]
- log Po/w of radiopeptides [1]: 0.65 ± 0.13
- tissue uptake at 2 min ([2]; CD1, blood, read-out: injected activity in Blood): 8.9 ± 0.6 %ID/g
- tissue uptake at 1 h ([2]; CD1, blood, 1 hour, read-out: injected activity in Blood): 3.8 ± 0.2 %ID/g
- tissue uptake at 2 min ([2]; CD1, bone, read-out: injected activity in Bone): 1.6 ± 0.1 %ID/g
- tissue uptake at 1 h ([2]; CD1, bone, 1 hour, read-out: injected activity in Bone): 1.4 ± 0.1 %ID/g
- tissue uptake at 2 min ([2]; CD1, brain, read-out: injected activity in Brain): 0.37 ± 0.04 %ID/g
- tissue uptake at 1 h ([2]; CD1, brain, 1 hour, read-out: injected activity in Brain): 0.2 ± 0.1 %ID/g
- tissue uptake at 2 min ([2]; CD1, heart, read-out: injected activity in Heart): 3.45 ± 0.02 %ID/g
- tissue uptake at 1 h ([2]; CD1, heart, 1 hour, read-out: injected activity in Heart): 1.2 ± 0.2 %ID/g
- dose excreted at 1 h ([2]; CD1, in vivo, 1 hour, read-out: Excretion): 12.7 ± 4.2%
- tissue uptake at 2 min ([2]; CD1, intestine, read-out: injected activity in Intestine): 0.5 ± 0.1 %ID/g
- tissue uptake at 1 h ([2]; CD1, intestine, 1 hour, read-out: injected activity in Intestine): 1.64 ± 0.07 %ID/g
- tissue uptake at 2 min ([2]; CD1, kidney, read-out: injected activity in Kidney): 5 ± 1.5 %ID/g
- tissue uptake at 1 h ([2]; CD1, kidney, 1 hour, read-out: injected activity in Kidney): 3.3 ± 0.8 %ID/g
- tissue uptake at 2 min ([2]; CD1, liver, read-out: injected activity in Liver): 16.7 ± 1.1 %ID/g
- tissue uptake at 1 h ([2]; CD1, liver, 1 hour, read-out: injected activity in Liver): 21.7 ± 0.9 %ID/g
- tissue uptake at 2 min ([2]; CD1, lung, read-out: injected activity in Lung): 126 ± 20 %ID/g
- tissue uptake at 1 h ([2]; CD1, lung, 1 hour, read-out: injected activity in Lung): 51.4 ± 4.4 %ID/g
- tissue uptake at 2 min ([2]; CD1, muscle, read-out: injected activity in Muscle): 0.61 ± 0.09 %ID/g
- tissue uptake at 1 h ([2]; CD1, muscle, 1 hour, read-out: injected activity in Muscle): 0.43 ± 0.03 %ID/g
- tissue uptake at 2 min ([2]; CD1, spleen, read-out: injected activity in Spleen): 13.6 ± 0.3 %ID/g
- tissue uptake at 1 h ([2]; CD1, spleen, 1 hour, read-out: injected activity in Spleen): 10.6 ± 0.4 %ID/g
- tissue uptake at 2 min ([2]; CD1, stomach, read-out: injected activity in Stomach): 2 ± 0.6 %ID/g
- tissue uptake at 1 h ([2]; CD1, stomach, 1 hour, read-out: injected activity in Stomach): 9.4 ± 0.2 %ID/g
